{"source": "PubChem BioAssay AID1259409", "about": "(Chemical Carcinogenesis Research Information System (CCRIS), 2018)", "origin": "cited, not measured here", "tested_on": "rodent chemically induced tumor inhibition, incidence and multiplicity", "assay": "CCRIS tumor inhibitor studies"}
{"smiles": "CC(C)c1cc2c(c(O)c1O)[C@@]13CCCC(C)(C)[C@@H]1C[C@@H]2OC3=O", "values": [{"measurement": "tumour outcome (control, treated, inhibition, significance)", "setting": "Carcinogen: 7,12-DIMETHYLBENZ[A]ANTHRACENE, 57-97-6, Dose [Inhibitor]: 0, 1 UMOL IN 200 µL ACETONE 2/WK FOR 20 WK BEGINNING 1 WK POST CARCINOGEN DOSE (STUDY DURATION: 20 WK), Route [Inhibitor]: DERMAL, Species: MOUSE, Strain/Sex: CD-1/FEMALE, Target Tissue: Type of Lesion: SKIN: TUMOR, Dose [Carcinogen]: 200 NMOL IN 200 µL ACETONE ONCE, Promoter: 12-O-TETRADECANOYLPHORBOL-13-ACETATE, 16561-29-8", "value": "93%, 93%, 0%, not significant"}, {"measurement": "tumour outcome (control, treated, inhibition, significance)", "setting": "Carcinogen: 7,12-DIMETHYLBENZ[A]ANTHRACENE, 57-97-6, Dose [Inhibitor]: 0, 3 UMOL IN 200 µL ACETONE 2/WK FOR 20 WK BEGINNING 1 WK POST CARCINOGEN DOSE (STUDY DURATION: 20 WK), Route [Inhibitor]: DERMAL, Species: MOUSE, Strain/Sex: CD-1/FEMALE, Target Tissue: Type of Lesion: SKIN: TUMOR, Dose [Carcinogen]: 200 NMOL IN 200 µL ACETONE ONCE, Promoter: 12-O-TETRADECANOYLPHORBOL-13-ACETATE, 16561-29-8", "value": "93%, 78%, 16%, not significant"}, {"measurement": "tumour outcome (control, treated, inhibition, significance)", "setting": "Carcinogen: 7,12-DIMETHYLBENZ[A]ANTHRACENE, 57-97-6, Dose [Inhibitor]: 0, 10 UMOL IN 200 µL ACETONE 2/WK FOR 20 WK BEGINNING 1 WK POST CARCINOGEN DOSE (STUDY DURATION: 20 WK), Route [Inhibitor]: DERMAL, Species: MOUSE, Strain/Sex: CD-1/FEMALE, Target Tissue: Type of Lesion: SKIN: TUMOR, Dose [Carcinogen]: 200 NMOL IN 200 µL ACETONE ONCE, Promoter: 12-O-TETRADECANOYLPHORBOL-13-ACETATE, 16561-29-8", "value": "93%, 60%, 35%, not significant"}]}
{"smiles": "C=C(C)C1C=CC(C)(O)CC1", "note": "(stereo not drawn)", "values": [{"measurement": "tumour outcome (control, treated, inhibition, significance)", "setting": "Carcinogen: BENZO[A]PYRENE, 50-32-8, Dose [Inhibitor]: 0, 20 MG 3/WK FOR 4 WK ON DAYS OTHER THAN THE CARCINOGEN TREATMENT (STUDY DURATION: 20 WK), Route [Inhibitor]: GAVAGE, Species: MOUSE, Strain/Sex: STRAIN-A/FEMALE, Target Tissue: Type of Lesion: FORESTOMACH: TUMOR, Dose [Carcinogen]: 1 MG IN 0.2 ML COTTONSEED OIL 2/WK FOR 4 WK, Promoter: NONE USED", "value": "13/19 (68%), 7/14 (50%), 26%, not significant"}]}
{"smiles": "CN(C)CCOc1ccc(/C(=C(/CCCl)c2ccccc2)c2ccccc2)cc1", "values": [{"measurement": "tumour outcome (control, treated, inhibition, significance)", "setting": "Carcinogen: N-METHYL-N-NITROSOUREA (684-93-5), Dose [Inhibitor]: 0, 0.2 MG/30 G BW ONCE EVERY 4 WK BEGINNING 1 WK POST CARCINOGEN DOSE (STUDY DURATION: 31 WK), Route [Inhibitor]: SUBCUTANEOUS, Species: MOUSE, Strain/Sex: ICR/FEMALE, Target Tissue: Type of Lesion: UTERUS: ENDOMETRIAL ADENOCARCINOMA, Dose [Carcinogen]: 1 MG/100 G BW IN 0.1 ML SALINE ONCE AT 10 WKS OF AGE, Promoter: 17 BETA-ESTRADIOL (50-28-2)", "value": "8/24 (33%), 1/19 (5%), 85%, p< 0.01"}, {"measurement": "tumour outcome (control, treated, inhibition, significance)", "setting": "Carcinogen: N-METHYL-N-NITROSOUREA, 684-93-5, Dose [Inhibitor]: 0, 100 MG/KG IN DIET FOR 28 D THEN REDUCED TO 50 MG/KG IN DIET FOR THE DURATION OF STUDY (STUDY DURATION: 187 D), Route [Inhibitor]: ORAL, Species: RAT, Strain/Sex: SPRAGUE-DAWLEY/FEMALE, Target Tissue: Type of Lesion: MAMMARY GLAND: TUMOR, Dose [Carcinogen]: 50 MG/KG BW ONCE, Promoter: NONE USED", "value": "100%, 46%, 54%, p<0.05"}]}
{"smiles": "CCOC(=O)/C=C\\C(=O)OCC", "values": [{"measurement": "tumour outcome (control, treated, inhibition, significance)", "setting": "Carcinogen: BUTYLATED HYDROXYANISOLE, 25013-16-5, Dose [Inhibitor]: 0, 0.2% IN DIET SIMULTANEOUSLY WITH CARCINOGEN FOR 104 WK (STUDY DURATION: 104 WK), Route [Inhibitor]: ORAL, Species: RAT, Strain/Sex: F344/MALE, Target Tissue: Type of Lesion: FORESTOMACH: PAPILLOMA, Dose [Carcinogen]: 2% IN DIET FOR 104 WK, Promoter: NONE USED", "value": "88%, 27%, 69%, p<0.01"}, {"measurement": "tumour outcome (control, treated, inhibition, significance)", "setting": "Carcinogen: BUTYLATED HYDROXYANISOLE, 25013-16-5, Dose [Inhibitor]: 0, 0.2% IN DIET SIMULTANEOUSLY WITH CARCINOGEN FOR 104 WK (STUDY DURATION: 104 WK), Route [Inhibitor]: ORAL, Species: RAT, Strain/Sex: F344/MALE, Target Tissue: Type of Lesion: FORESTOMACH: SQUAMOUS CELL CARCINOMA, Dose [Carcinogen]: 2% IN DIET FOR 104 WK, Promoter: NONE USED", "value": "20%, 5%, 75%, not calculated"}, {"measurement": "tumour outcome (control, treated, inhibition, significance)", "setting": "Carcinogen: N-BUTYL-N-(4-HYDROXYBUTYL)NITROSAMINE, 3817-11-6, Dose [Inhibitor]: 0, 0.15% IN DRINKING WATER FOR 31 WK BEGINNING POST CARCINOGEN DOSE (STUDY DURATION: 36 WK), Route [Inhibitor]: ORAL, Species: RAT, Strain/Sex: F344/MALE, Target Tissue: Type of Lesion: URINARY BLADDER: CARCINOMA, Dose [Carcinogen]: 0.05% IN DRINKING WATER FOR 4 WK, Promoter: BUTYLATED HYDROXYANISOLE, 25013-16-5", "value": "5/15 (33%), 2/15 (13%), 61%, not significant"}, {"measurement": "tumour outcome (control, treated, inhibition, significance)", "setting": "Carcinogen: N-BUTYL-N-(4-HYDROXYBUTYL)NITROSAMINE, 3817-11-6, Dose [Inhibitor]: 0, 0.15% IN DRINKING WATER FOR 31 WK BEGINNING POST CARCINOGEN DOSE (STUDY DURATION: 36 WK), Route [Inhibitor]: ORAL, Species: RAT, Strain/Sex: F344/MALE, Target Tissue: Type of Lesion: URINARY BLADDER: PAPILLOMA, Dose [Carcinogen]: 0.05% IN DRINKING WATER FOR 4 WK, Promoter: BUTYLATED HYDROXYANISOLE, 25013-16-5", "value": "8/15 (53%), 10/15 (67%), -26%, not significant"}, {"measurement": "tumour outcome (control, treated, inhibition, significance)", "setting": "Carcinogen: N-BUTYL-N-(4-HYDROXYBUTYL)NITROSAMINE, 3817-11-6, Dose [Inhibitor]: 0, 0.15% IN DRINKING WATER FOR 31 WK BEGINNING POST CARCINOGEN DOSE (STUDY DURATION: 36 WK), Route [Inhibitor]: ORAL, Species: RAT, Strain/Sex: F344/MALE, Target Tissue: Type of Lesion: URINARY BLADDER: PAPILLOMA, Dose [Carcinogen]: 0.05% IN DRINKING WATER FOR 4 WK, Promoter: SODIUM BICARBONATE, 144-55-8", "value": "9/15 (60%), 9/15 (60%), 0%, not significant"}, {"measurement": "tumour outcome (control, treated, inhibition, significance)", "setting": "Carcinogen: N-METHYL-N'-NITRO-N-NITROSOGUANIDINE, 70-25-7, Dose [Inhibitor]: 0, 0.2% IN DIET BEGINNING 1 WK POST CARCINOGEN DOSE AND CONTINUING FOR 51 WK (STUDY DURATION: 52 WK), Route [Inhibitor]: ORAL, Species: RAT, Strain/Sex: F344/MALE, Target Tissue: Type of Lesion: FORESTOMACH: CARCINOMA, Dose [Carcinogen]: 150 MG/KG ONCE, Promoter: BUTYLATED HYDROXYANISOLE, 25013-16-5", "value": "5/14 (36%), 0/14 (0%), 100%, p<0.05"}, {"measurement": "tumour outcome (control, treated, inhibition, significance)", "setting": "Carcinogen: N-METHYL-N'-NITRO-N-NITROSOGUANIDINE, 70-25-7, Dose [Inhibitor]: 0, 0.2% IN DIET BEGINNING 1 WK POST CARCINOGEN DOSE AND CONTINUING FOR 51 WK (STUDY DURATION: 52 WK), Route [Inhibitor]: ORAL, Species: RAT, Strain/Sex: F344/MALE, Target Tissue: Type of Lesion: FORESTOMACH: PAPILLOMA, Dose [Carcinogen]: 150 MG/KG ONCE, Promoter: BUTYLATED HYDROXYANISOLE, 25013-16-5", "value": "14/14 (100%), 11/14 (79%), 21%, not calculated"}, {"measurement": "tumour outcome (control, treated, inhibition, significance)", "setting": "Carcinogen: N-METHYL-N'-NITRO-N-NITROSOGUANIDINE, 70-25-7, Dose [Inhibitor]: 0, 0.2% IN DIET BEGINNING 1 WK POST CARCINOGEN DOSE AND CONTINUING FOR 51 WK (STUDY DURATION: 52 WK), Route [Inhibitor]: ORAL, Species: RAT, Strain/Sex: F344/MALE, Target Tissue: Type of Lesion: FORESTOMACH: SARCOMA, Dose [Carcinogen]: 150 MG/KG ONCE, Promoter: BUTYLATED HYDROXYANISOLE, 25013-16-5", "value": "1/14 (7%), 4/14 (29%), -314%, not calculated"}, {"measurement": "tumour outcome (control, treated, inhibition, significance)", "setting": "Carcinogen: N-METHYL-N'-NITRO-N-NITROSOGUANIDINE, 70-25-7, Dose [Inhibitor]: 0, 0.2% IN DIET BEGINNING 1 WK POST CARCINOGEN DOSE AND CONTINUING FOR 51 WK (STUDY DURATION: 52 WK), Route [Inhibitor]: ORAL, Species: RAT, Strain/Sex: F344/MALE, Target Tissue: Type of Lesion: FORESTOMACH: SQUAMOUS CELL CARCINOMA, Dose [Carcinogen]: 150 MG/KG ONCE, Promoter: BUTYLATED HYDROXYANISOLE, 25013-16-5", "value": "14/14 (100%), 5/14 (36%), 64%, p<0.001"}]}
{"smiles": "O=c1ccc2ccccc2o1", "values": [{"measurement": "tumour outcome (control, treated, inhibition, significance)", "setting": "Carcinogen: 7,12-DIMETHYLBENZ(A)ANTHRACENE, 57-97-6, Dose [Inhibitor]: 0.034 MMOL/G IN DIET BEGINNING 1 D PRIOR TO CARCINOGEN DOSE AND CONTINUING FOR 8 D (STUDY DURATION: 23 WK), Route [Inhibitor]: ORAL, Species: RAT, Strain/Sex: SPRAGUE-DAWLEY/FEMALE, Target Tissue: Type of Lesion: MAMMARY GLAND: TUMOR, Dose [Carcinogen]: 12 MG IN 1.0 ML OLIVE OIL ONCE, Promoter: NONE USED", "value": "86%, 31%, 64%, p<0.01"}, {"measurement": "tumour outcome (control, treated, inhibition, significance)", "setting": "Carcinogen: 7,12-DIMETHYLBENZ[A]ANTHRACENE, 57-97-6, Dose [Inhibitor]: 0.068 MMOL/G IN DIET BEGINNING 7 D PRIOR TO CARCINOGEN DOSE AND CONTINUING FOR 8 D (STUDY DURATION: 23 WK), Route [Inhibitor]: ORAL, Species: RAT, Strain/Sex: SPRAGUE-DAWLEY/FEMALE, Target Tissue: Type of Lesion: MAMMARY GLAND: TUMOR, Dose [Carcinogen]: 12 MG IN 1.0 ML OLIVE OIL, Promoter: NONE USED", "value": "86%, 14%, 84%, p<0.01,"}, {"measurement": "tumour outcome (control, treated, inhibition, significance)", "setting": "Carcinogen: BENZO[A]PYRENE, 50-32-8, Dose [Inhibitor]: 0.068 MMOL/G IN DIET FOR 5 WK BEGINNING 1 WK PRIOR TO CARCINOGEN TREATMENT (STUDY DURATION: 21 WK), Route [Inhibitor]: ORAL, Species: MOUSE, Strain/Sex: ICR/FEMALE, Target Tissue: Type of Lesion: FORESTOMACH: TUMOR, Dose [Carcinogen]: 1 MG IN 0.2 ML CORN OIL, 2/WK FOR 4 WK, Promoter: NONE USED", "value": "100%, 61%, 39%, p<0.05"}]}
